Data on 50 molecules can be found in ChEMBL document CHEMBL1201862, “PubChem BioAssay data set” (2004).

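Results reflect a 48-hour exposure of cells in 96-well plates to compound at five concentrations. GI50 marks 50% less growth.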 Active and inactive are the calls of the source. No stated cut-off is given here; in the data, active = GI50 up to about 1.1 µM and inactive = higher. A value given as a limit tells only on which side of the number the result lay.

Among the test systems are DU-145; MCF7; NCI/ADR-RES; DLD-1; KM-20L2; LXFL 529; HOP-18; XF498.
What all share (experiment): growth of human tumour cells (NCI), 48 h

With `O=[N+]([O-])c1ccc2[nH]c(-c3ccc(Cl)cc3)nc2c1`, the GI50 with DU-145 was 25.2 µM (inactive); with MCF7 it was 18.7 µM (inactive); in the assay with NCI/ADR-RES it was 21.2 µM (inactive).
With `O=C(O)c1ccccc1C1c2ccccc2Oc2ccccc21`, the figures for the GI50 in the assay on DU-145 and with NCI/ADR-RES were 46.7 µM (inactive) and 59.7 µM (inactive), respectively.
Consider `COC(=O)c1cc2c(n1S(=O)(=O)c1ccc(C)cc1)C(=O)C(=O)c1[nH]cc(C(=O)OCc3ccccc3)c1-2`, for which the GI50 was 0.138 µM (active) with DU-145, 0.0668 µM (active) in the assay with MCF7 and 0.583 µM (active) in the assay on NCI/ADR-RES.
Consider `CN(C)CCCNc1ncnc2[nH]cnc12`, for which the GI50 in the assay with DU-145, with MCF7 and in the assay on NCI/ADR-RES was > 100 µM (inactive) each time.
Regarding `Sc1ncc2[nH]nnc2n1`, the GI50 in the assay with DU-145, in the assay on MCF7 and with NCI/ADR-RES was > 100 µM (inactive) each time.
In the case of `CCCCCCNCCCNc1c2ccccc2nc2cccc([N+](=O)[O-])c12`, the GI50 with DU-145 was 0.00537 µM (active); in the assay on MCF7, 0.00376 µM (active); with NCI/ADR-RES, 0.33 µM (active).
Consider `Cn1c(-c2cccs2)cc(-c2ccccc2)c1-c1cccs1`, for which the GI50 with DU-145 is > 100 µM (inactive); with MCF7, 3.58 µM (inactive); with NCI/ADR-RES, > 100 µM (inactive).
`O=c1[nH]c(=O)n(C2CC(O)C(CO)O2)cc1C#Cc1c(F)c(F)c(F)c(F)c1F` (stereo not drawn): the GI50 with DLD-1, with KM-20L2 and in the assay with LXFL 529 was > 100 µM (inactive) throughout.
Regarding `NNc1nnc(-c2nnc(NN)o2)o1`, the GI50 in the assay on DU-145, in the assay with MCF7 and in the assay with NCI/ADR-RES was > 10 µM (inactive) throughout.
Regarding `CCOC(=O)NC(=S)NN(C)C1=NCC(C)(C)S1`, the GI50 in the assay with DU-145 and in the assay on MCF7 was > 100 µM (inactive) in each case.
With `CN(C)C=C1C(Cl)=C(C=O)CC(C=O)=C1Cl`, the GI50 was 5.71 µM (inactive) in the assay on DLD-1, 13.3 µM (inactive) in the assay on HOP-18, 19.5 µM (inactive) in the assay on KM-20L2 and 2.03 µM (inactive) with LXFL 529.
`CCOP(=O)(OCC)/C(C#N)=C/c1coc2cc(C)cc(C)c2c1=O`: the GI50 in the assay with DU-145, in the assay on MCF7 and in the assay on NCI/ADR-RES was > 100 µM (inactive) in each case.
For `Cc1ccc(C)c(N2C(=O)C(=O)C(c3nc4ccccc4s3)/C(=N/N)C2=O)c1` (stereo not drawn), the GI50 with DLD-1, with KM-20L2, with LXFL 529 and in the assay on XF498 was > 100 µM (inactive) in each case.
Consider `CC1(C)C/C(=N/O)c2c(nc3ccc4ccccc4c3c2-c2ccc(Cl)cc2)C1`, for which the GI50 in the assay with DU-145 was 16.5 µM (inactive); in the assay with MCF7, 11.2 µM (inactive); in the assay on NCI/ADR-RES, 17.5 µM (inactive).
The matching figures for `CC(C)=CC(=O)c1[nH]c2ccccc2c1CC(=O)NCCc1c[nH]cn1`: > 100 µM (inactive), > 100 µM (inactive) and > 100 µM (inactive).
As for `Cc1ccccc1C(=O)N1CCc2c([nH]c3ccccc23)C1`, the GI50 in the assay on DU-145 is 25.6 µM (inactive); in the assay on MCF7, 21 µM (inactive); in the assay on NCI/ADR-RES it was 22.6 µM (inactive).
On to `C[C@H]1[C@H](C)N(Cc2ccccc2)P(=O)(C(O)/C=C/c2ccccc2)N1Cc1ccccc1` (stereo partly drawn), for which the GI50 in the assay on MCF7 was 8.3 µM (inactive); with NCI/ADR-RES it was 10.4 µM (inactive).
Take `COC(=O)/C(=N/O)C(C(=O)C=C(C)C)C(=O)C(=O)Nc1nc2ccc([N+](=O)[O-])cc2s1` (stereo not drawn): the GI50 in the assay on KM-20L2 was 80.2 µM (inactive); in the assay on LXFL 529, 25.6 µM (inactive); in the assay with XF498, 58.7 µM (inactive).
For `COC(=O)c1ccccc1C1CN=NC12Cc1c(ccc3c1CCC3)C2=O` (stereo not drawn), the values for the GI50 in the assay on DU-145, with MCF7 and in the assay with NCI/ADR-RES were > 100 µM (inactive), 50.9 µM (inactive) and 31.1 µM (inactive), respectively.
Turning to `CN1C2CCC1CC(CC(=O)NC(c1ccc(F)cc1)c1ccc(F)cc1)C2` (stereo not drawn), the GI50 with DU-145 and in the assay on NCI/ADR-RES was > 100 µM (inactive) in each case.
For `COc1cc2cc(C(=O)N3CC(CCl)c4ccc([N+](C)(C)Cc5ccccc5[N+](=O)[O-])cc43)[nH]c2c(OC)c1OC` (stereo not drawn), the results for the GI50 with DU-145, in the assay with MCF7 and with NCI/ADR-RES were 1.53 µM (inactive), 0.621 µM (active) and 1.76 µM (inactive), respectively.
For `C=C[C@@]1(O)CCCC[C@@H]1CC(Sc1ccccc1)Sc1ccccc1`, in that order: 17.7 µM (inactive), 16.7 µM (inactive) and 19.8 µM (inactive).
Turning to `COc1ccc2nc3ccc(OC)cc3c([S+]([O-])Cc3ccc([N+](=O)[O-])cc3)c2c1` (stereo not drawn), the GI50 is 2.58 µM (inactive) in the assay on DU-145, 1.92 µM (inactive) in the assay with MCF7 and 21.2 µM (inactive) in the assay with NCI/ADR-RES.
For `CC1CCCC(C(O)CC2CC(=O)NC(=O)C2)C1O` (stereo not drawn), in that order: > 100 µM (inactive), > 100 µM (inactive) and > 100 µM (inactive).
For `CC(C)CCC[C@@H](C)[C@H]1CC[C@H]2C3=C[C@H](OS(=O)(=O)O)[C@@]4(O)C[C@@H](O)CC[C@]4(C)[C@@]3(O)CC[C@]12C`, in that order: > 100 µM (inactive), > 100 µM (inactive) and > 100 µM (inactive).
`Cn1cc2ccccc2c1-c1nc(F)nc(F)n1`: the GI50 was > 100 µM (inactive) in the assay with DLD-1, > 100 µM (inactive) in the assay on KM-20L2, > 100 µM (inactive) in the assay on LXFL 529 and 23.9 µM (inactive) with XF498.
As for `CC1CCCN(CC(O)CN2CCCc3ccccc32)C1` (stereo not drawn), the GI50 with DU-145, with MCF7 and in the assay on NCI/ADR-RES was > 100 µM (inactive) each time.
For the molecule `Cn1c(=O)c2c(nc(NCCCCl)n2CC(=O)NCCCCl)n(C)c1=O`, the GI50 in the assay with DU-145 and with NCI/ADR-RES was > 100 µM (inactive) in each case.
On to `Cn1c(SCc2ccc(F)cc2)nnc1C12CC3CC(CC(C3)C1)C2`, for which the GI50 with DU-145 is 52 µM (inactive); in the assay on NCI/ADR-RES it was 28.9 µM (inactive).
For `CC(=O)OCC1OC(n2ncc(=O)[nH]c2=O)C(OC(C)=O)C1OC(C)=O` (stereo not drawn), the GI50 in the assay on DU-145 is 23 µM (inactive); with MCF7 it was 15.6 µM (inactive); with NCI/ADR-RES it was 61.7 µM (inactive).
For `COC(=O)C1=C(C(=O)OC)C(OO)(c2ccccc2)OC1=O` (stereo not drawn), the GI50 with DU-145 is > 100 µM (inactive); in the assay with MCF7, 52.1 µM (inactive); in the assay with NCI/ADR-RES, > 100 µM (inactive).
As for `O=C1NC(N2CCCC(CO)C2)=N/C1=C\c1cccs1` (stereo not drawn), the GI50 in the assay on DU-145, with MCF7 and with NCI/ADR-RES was > 100 µM (inactive) throughout.
In the case of `O=C1Nc2cccc3ncn(c23)C2=C1CCCC2`, the GI50 in the assay on DLD-1 was > 100 µM (inactive); in the assay on HOP-18 it was 4.98 µM (inactive); in the assay on KM-20L2 it was > 100 µM (inactive); in the assay with LXFL 529, > 100 µM (inactive).
As for `CC1CCC(O)(C(C)(C(=O)O)c2ccccc2)CC1` (stereo not drawn), the GI50 in the assay with DU-145 and with NCI/ADR-RES was > 100 µM (inactive) throughout.
`Cn1c(=O)n2n(c1=O)C([S+]([O-])c1ccccc1)C2` (stereo not drawn): the GI50 with DU-145, with MCF7 and in the assay with NCI/ADR-RES was > 100 µM (inactive) throughout.
Take `CC(=O)/C(=C/NC(=S)Nc1ccccc1)C(=O)Nc1ccccc1C`: the GI50 in the assay with DU-145, with MCF7 and in the assay with NCI/ADR-RES was > 100 µM (inactive) throughout.
`CCOC(=O)c1c(N2CCCC2)[nH]c(=O)c(C(c2ccc(N(C)C)cc2)c2c(O)c(C(=O)OCC)c(N3CCCC3)[nH]c2=O)c1O`: the GI50 in the assay with DU-145, with MCF7 and in the assay with NCI/ADR-RES was > 100 µM (inactive) each time.
As for `CC(C)(C)OC(=O)NCCCCC(NC(=O)OCc1ccccc1)C(N)=O` (stereo not drawn), the GI50 in the assay on DU-145, in the assay with MCF7 and with NCI/ADR-RES was > 100 µM (inactive) throughout.
As to `COc1ccc(C2(O)C(S(=O)(=O)c3ccc(C)cc3)=Cc3ccc(OC)cc32)cc1` (stereo not drawn), the GI50 was 71.3 µM (inactive) in the assay with DU-145, 35 µM (inactive) with MCF7 and > 100 µM (inactive) in the assay with NCI/ADR-RES.
`O=C(Nc1nccs1)NS(=O)(=O)n1cnc2ccccc21`: the GI50 in the assay on DU-145, in the assay with MCF7 and with NCI/ADR-RES was > 100 µM (inactive) in each case.
For `NC(=O)C(=CNC(=S)Nc1cccc(C(F)(F)F)c1)C(N)=O`, the GI50 in the assay with DU-145, in the assay on MCF7 and in the assay on NCI/ADR-RES was > 100 µM (inactive) throughout.
Regarding `OCC1C(OCc2ccccc2)C(OCc2ccccc2)C(OCc2ccccc2)CN1Cc1ccccc1` (stereo not drawn), the GI50 is > 100 µM (inactive) in the assay with DU-145, 14.2 µM (inactive) with MCF7 and 26.7 µM (inactive) with NCI/ADR-RES.
Consider `COc1ccc(/N=N/c2ccc3oc(=O)c(C(=O)Nc4ccc(OC)cc4)cc3c2)cc1`, for which the GI50 is 15.6 µM (inactive) in the assay on DU-145, 16.1 µM (inactive) with MCF7 and 16.2 µM (inactive) in the assay on NCI/ADR-RES.
For `CC1=CC2C(C=C1)S(=O)(=O)N1CC21c1ccccc1` (stereo not drawn), the GI50 in the assay on DLD-1 was > 100 µM (inactive); in the assay on HOP-18 it was 54 µM (inactive); with KM-20L2 it was > 100 µM (inactive); with LXFL 529 it was > 100 µM (inactive).
With `CCOC(=O)CCCN`, the GI50 in the assay with DU-145, with MCF7 and in the assay with NCI/ADR-RES was > 100 µM (inactive) in each case.
As for `Sc1nnc(C23CC4CC(CC(C4)C2)C3)n1-c1ccc(Cl)cc1`, the results for the GI50 in the assay on DU-145, with MCF7 and in the assay with NCI/ADR-RES were 20.1 µM (inactive), 13.1 µM (inactive) and 15.5 µM (inactive), respectively.
On to `O=[N+]([O-])c1ccc2c(/N=N/c3ccc4ccccc4c3O)c(O)cc(S(=O)(=O)O)c2c1`, for which the values for the GI50 in the assay with DU-145, in the assay on MCF7 and with NCI/ADR-RES were 18.7 µM (inactive), 30.3 µM (inactive) and 11.1 µM (inactive), respectively.
As for `CCc1cccc2c3c([nH]c12)-c1ccccc1NC(=O)C3`, the GI50 in the assay on DU-145 is > 100 µM (inactive); in the assay with MCF7 it was 18.3 µM (inactive); in the assay on NCI/ADR-RES, > 100 µM (inactive).
On to `[O-][n+]1ccc(NO)c2ccccc21`, for which the GI50 in the assay on DU-145 is 1.5 µM (inactive); in the assay with MCF7 it was 0.883 µM (active); in the assay on NCI/ADR-RES, 1.54 µM (inactive).
`Cc1ccc2c(O)cc(-c3ccc4ccccc4c3)nc2n1`: the GI50 in the assay on DU-145 is 15.5 µM (inactive); in the assay on MCF7, 2.28 µM (inactive); in the assay on NCI/ADR-RES it was 4.58 µM (inactive).
